Test results from patent US12180187B2, “1-phenyl-5-azinylpyrazolyl-3-oxyalkyl acids and their use for controlling unwanted plant growth” (BAYER AKTIENGESELLSCHAFT, priority 2019, dated 2024).

Legend:
[1] = test system: ALOMY; assay: Pre-emergence action against ALOMY, 1280 g/ha; format: in vivo, Alopecurus myosuroides; settings: visual scoring after about 3 weeks vs untreated controls, 100% = plants have died, 0% = like control plants
Method in brief: (§1)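 Mono- and dicot weed seeds sown in sandy loam were treated on the covering soil surface with WP or EC formulations plus 0.5% additive at 600 L water/ha. Pots stayed in a greenhouse; damage was scored visually after ~3 weeks as percent versus untreated controls (100% = dead).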

[2] = test system: DIGSA; assay: Pre-emergence action against DIGSA, 1280 g/ha; format: in vivo, Digitaria sanguinalis; settings: visual scoring after about 3 weeks vs untreated controls, 100% = plants have died, 0% = like control plants
Method in brief: as §1

[3] = test system: ABUTH; assay: Pre-emergence action against ABUTH, 1280 g/ha; format: in vivo, Abutilon theophrasti; settings: scored visually after about 3 weeks vs untreated controls (100% = plants have died)
Method in brief: as §1

[4] = test system: AVEFA; assay: Pre-emergence action at 320 g/ha against AVEFA; format: in vivo; settings: visual scoring after about 3 weeks vs untreated controls
Method in brief: (§2)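 Application: aqueous WP or EC with 0.5% additive on soil covering seeds, 600 l/ha. Read-out: visual percent damage after ~3 weeks in greenhouse, untreated pots as reference.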

[5] = test system: VIOTR; assay: Pre-emergence action at 320 g/ha against VIOTR; format: in vivo, Viola tricolor; settings: dosage 320 g/ha
Method in brief: as §2

[6] = test system: LOLRI; assay: Post-emergence action against LOLRI, 1.28 kg/ha; format: in vivo, Lolium rigidum; settings: dosage 1280 g/ha, visual rating about 3 weeks after treatment vs untreated controls
Method in brief: (§3)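 Spray at one-leaf stage with WP/EC + 0.5% additive, 600 L water/ha. Greenhouse, optimum conditions, ~3 wk. Visual % control vs untreated; 0 = no effect, 100 = dead.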

[7] = test system: SETVI; assay: Post-emergence action against SETVI, 1.28 kg/ha; format: in vivo, Setaria viridis; settings: dosage 1280 g/ha, visual rating about 3 weeks after treatment vs untreated controls
Method in brief: as §3

[8] = test system: AMARE; assay: Post-emergence action against AMARE, 1.28 kg/ha; format: in vivo, Amaranthus retroflexus; settings: dosage 1280 g/ha, visual rating about 3 weeks after treatment vs untreated controls (100% = plants died)
Method in brief: as §3

[9] = test system: VERPE; assay: Post-emergence action against VERPE, 1.28 kg/ha; format: in vivo, Veronica persica; settings: dosage 1280 g/ha, visual rating about 3 weeks after treatment vs untreated controls (100% = plants died)
Method in brief: as §3

[10] = test system: AMARE; assay: Post-emergence action at 320 g/ha against AMARE; format: in vivo, Amaranthus retroflexus; settings: visual rating about 3 weeks after treatment vs untreated controls
From the text: Accordingly, the compounds of the invention have good herbicidal action against a broad spectrum of weed grasses and broad-leaved weeds and are therefore suitable for controlling unwanted vegetation by the post-emergence method. • b) Seeds of monocotyledonous and dicotyledonous weeds and crop plants are placed in sandy loam in plastic or organic planting pots, covered with soil and cultivated in a greenhouse under controlled growth conditions. 2 to 3 weeks after sowing, the test plants are treated at the one-leaf stage. The compounds of the invention, formulated in the form of wettable powders (WP) or as emulsion concentrates (EC), are then sprayed onto the green parts of the plants as aqueous suspension or emulsion with addition of 0.5% additive at a water application rate of 600 l/ha (converted). After the test plants have been kept in the greenhouse under optimum growth conditions for about 3 weeks, the activity of the preparations is rated visually in comparison to untreated controls. For example, 100% activity=the plants have died, 0% activity=like control plants. Tables 39 to 49 below show the effects of selected compounds of the general formula (I) according to Tables 1 and 2 on various harmful plants and at an application rate corresponding to 320 g/ha, which were obtained by the experimental procedure mentioned above.

[11] = test system: PHBPU; assay: Post-emergence action at 320 g/ha against PHBPU; format: in vivo; settings: visual rating about 3 weeks after treatment vs untreated controls
Method in brief: (§4)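 Sow in sandy loam → greenhouse growth 2–3 wk → spray at one-leaf stage (WP/EC, aqueous, +0.5% additive, 600 l/ha) → hold ~3 wk under optimum conditions → visual rating, 0–100% relative to untreated.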

[12] = test system: VIOTR; assay: Post-emergence action at 320 g/ha against VIOTR; format: in vivo, Viola tricolor; settings: visual rating about 3 weeks after treatment vs untreated controls
Method in brief: as §4

[13] = test system: ALOMY; assay: Post-emergence action against ALOMY, 320 g/ha; format: in vivo, Alopecurus myosuroides; settings: dosage 320 g/ha, visual rating about 3 weeks after treatment vs untreated controls (100% = plants died)
Method in brief: as §4

[14] = test system: DIGSA; assay: Post-emergence action at 320 g/ha against DIGSA; format: in vivo, Digitaria sanguinalis; settings: dosage 320 g/ha, visual rating about 3 weeks after treatment vs untreated controls (100% = plants died)
Method in brief: as §4

[15] = test system: ECHCG; assay: Post-emergence action at 320 g/ha against ECHCG; format: in vivo, Echinochloa crus-galli; settings: dosage 320 g/ha, visual rating about 3 weeks after treatment vs untreated controls (100% = plants died)
Method in brief: as §4

SMILES	Pre-emergence action against ALOMY [1]	Pre-emergence action against DIGSA [2]	Pre-emergence action against ABUTH [3]	Pre-emergence action against AVEFA in % [4]	Pre-emergence action against VIOTR in % [5]	Post-emergence action against LOLRI [6]	Post-emergence action against SETVI [7]	Post-emergence action against AMARE [8]	Post-emergence action against VERPE [9]	Post-emergence action against AMARE in % [10]	Post-emergence action against PHBPU in % [11]	Post-emergence action against VIOTR in % [12]	Post-emergence action against ALOMY [13]	Post-emergence action at 320 g/ha against DIGSA in % [14]	Post-emergence action at 320 g/ha against ECHCG in % [15]
C[C@@H](Oc1nn(-c2ccccc2F)c(-c2cncnc2)c1Br)C(=O)O [VI-012]	90%	90%	90%	80%	100%	90%	90%	90%	90%	80%	80%	100%			
CCOC(=O)COc1nn(-c2ccccc2F)c(-c2ccc(F)nc2)c1I [VII-036]	100%	100%	90%		100%	100%	90%	100%	100%		80%	80%	90%	90%	80%
COC(=O)[C@@H](C)Oc1nn(-c2ccccc2)c(-c2cccnc2)c1Br [VII-008]	100%	100%	90%	80%	100%	100%	90%	90%	100%	90%	80%	90%	100%	80%	90%
COC(=O)[C@@H](C)Oc1nn(-c2ccccc2F)c(-c2ccnc(F)c2)c1Br [VIII-006]	100%	100%	90%	80%	100%	100%	90%	100%	90%	80%			100%		90%
COC(=O)[C@@H](C)Oc1nn(-c2ccccc2)c(-c2cncnc2)c1Br [VI-013]	90%	100%	90%		100%	90%	90%	90%	100%	90%	80%	90%	80%	90%	
COC(=O)[C@@H](C)Oc1nn(-c2cc(F)ccc2F)c(-c2ccc(F)nc2)c1Br [VII-062]	100%	100%	90%	100%	100%	100%			100%		80%	80%	90%	90%	80%
COC(=O)COc1nn(-c2cc(F)ccc2F)c(-c2ccc(F)nc2)c1Br [VII-089]	100%	100%		90%	100%	100%		90%	90%	80%	80%		90%	90%	
COC(=O)COc1nn(-c2ccc(F)cc2)c(-c2cccnc2)c1Br [VII-028]					100%	90%	90%	100%	90%	80%	90%	80%	80%		80%
COC(=O)[C@@H](C)Oc1nn(-c2cc(F)ccc2F)c(-c2cncc(F)c2)c1Br [VII-132]	100%	100%	90%	100%	100%		90%	100%	90%	90%	90%	80%	90%	90%	80%
